These results are taken from patent US11242334B2, “Heterocyclic compounds as kinase inhibitors, compositions comprising the heterocyclic compound, and methods of use thereof” (JS INNOPHARM (SHANGHAI) LTD, priority 2017, dated 2022).

For orientation: IC50 means the concentration that gives 50% inhibition. Read a low IC50 as greater potency in that assay.

The structures appear in SMILES notation.

For assay [1], the target named is T1, human ERK2 (Homo sapiens, UniProt P28482).
T1 construct: recombinantly expressed as GST-tagged full-length protein purified from E. coli; GST; purchased Invitrogen PV3311; host or cells: E. coli
T1 sequence (P28482 whole entry): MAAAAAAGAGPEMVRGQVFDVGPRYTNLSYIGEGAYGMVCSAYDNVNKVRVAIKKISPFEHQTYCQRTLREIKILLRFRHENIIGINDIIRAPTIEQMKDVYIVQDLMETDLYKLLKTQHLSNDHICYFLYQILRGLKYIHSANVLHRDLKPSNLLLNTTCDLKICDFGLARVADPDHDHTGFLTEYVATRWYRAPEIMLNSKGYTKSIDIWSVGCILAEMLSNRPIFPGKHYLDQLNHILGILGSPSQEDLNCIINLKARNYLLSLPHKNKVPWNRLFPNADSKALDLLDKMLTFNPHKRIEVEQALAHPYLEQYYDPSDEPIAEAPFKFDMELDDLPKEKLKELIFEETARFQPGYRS
Description: LanthaScreen TR-FRET enzymatic assay, ERK2. Conditions: IC50 values of ERK2 biochemical activity; 5 μM ATP, 400 nM ATF2-GFP substrate. The gist of the method: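 GST-tagged full-length ERK2 from E. coli, activated with MAP2K1, was used at 20 ng/ml with 400 nM GFP-ATF2(19-96) and 5 μM ATP (near Km). Compound was pre-incubated 15 min, and the reaction ran 1 h at room temperature. pThr71 was detected by Tb-antibody TR-FRET ratio, with IC50 from sigmoid fitting against 1% DMSO.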
(In general: TR-FRET usually uses a lanthanide donor and a delayed reading to cut background.)

Assay [2] deals with Colo205 cell line. Description: Colo205 cell proliferation assay (MTT assay, WST-8 readout). Type of assay: cell-based. As to conditions: Homo sapiens; IC50 values of growth inhibition in Colo 205 cells; 72 hours. The gist of the method: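 Colo205 cells were seeded at 5,000 cells/well in RPMI-1640 with 10% FBS and attached for 24 h at 37° C. They were then exposed for 72 h to compound at final 50 μM to 0.005 μM (0.5% DMSO). Viability was read as WST-8 absorbance at 450 nm after 2 h, and IC50 of growth inhibition was determined.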
A general note: Tetrazolium dyes change colour on reduction, which living cells bring about.

In the case of `Cn1cc(-c2n[nH]c3ccc(-c4ccn(Cc5ccc(F)c(Cl)c5)c(=O)c4)cc23)cn1` [Example 84, 1-(3-chloro-4-fluorobenzyl)-4-(3-(1-methyl-1H-pyrazol-4-yl)-1H-indazol-5-yl)pyridin-2(1H)-one], the half-inhibitory concentration (IC50) was under 10 nM in assay [1] and at most 500 nM in assay [2].
The corresponding values for `Cn1cc(-c2n[nH]c3ccc(-c4ccn([C@H](CO)c5cccc(Br)c5)c(=O)c4)cc23)cn1` [Example 45, (S)-1-(1-(3-bromophenyl)-2-hydroxyethyl)-4-(3-(1-methyl-1H-pyrazol-4-yl)-1H-indazol-5-yl)pyridin-2(1H)-one] are under 10 nM and at most 500 nM.
Take `Cc1cc(-c2n[nH]c3ccc(-c4ccn(Cc5ccnc(C(F)(F)F)c5)c(=O)c4)nc23)ccn1` [Example 112, 4-(3-(2-methylpyridin-4-yl)-1H-pyrazolo[4,3-b]pyridin-5-yl)-1-((2-(trifluoromethyl)pyridin-4-yl)methyl)pyridin-2(1H)-one]: the IC50 in assay [1] was under 10 nM; in assay [2] it was 1000 to 5000 nM.
As to `Cn1cc(-c2n[nH]c3ccc(-c4ccn(Cc5cc(Br)ccc5F)c(=O)c4)cc23)cn1` [Example 85, 1-(5-bromo-2-fluorobenzyl)-4-(3-(1-methyl-1H-pyrazol-4-yl)-1H-indazol-5-yl)pyridin-2(1H)-one], the IC50 in assay [1] is under 10 nM; in assay [2], at most 500 nM.
For `O=c1cc(-c2ccc3[nH]nc(-c4cnn(C(F)F)c4)c3c2)ccn1[C@H](CO)c1ccc(F)c(Cl)c1` [Example 51, (S)-1-(1-(3-chloro-4-fluorophenyl)-2-hydroxyethyl)-4-(3-(1-(difluoromethyl)-1H-pyrazol-4-yl)-1H-indazol-5-yl)pyridin-2(1H)-one] the same measures were under 10 nM and at most 500 nM.
Take `CC(C)Oc1cc(-c2n[nH]c3ccc(-c4ccn([C@H](CO)c5cccc(Cl)c5)c(=O)c4)cc23)ccn1` [Example 19, (S)-1-(1-(3-chlorophenyl)-2-hydroxyethyl)-4-(3-(2-isopropoxypyridin-4-yl)-1H-indazol-5-yl)pyridin-2(1H)-one]: the figures for the IC50 in assay [1] and in assay [2] were under 10 nM and 1000 to 5000 nM, respectively.
With `Cn1cc(-c2n[nH]c3ccc(-c4ccn(Cc5cccc(I)c5)c(=O)c4)cc23)cn1` [Example 93, 1-(3-iodobenzyl)-4-(3-(1-methyl-1H-pyrazol-4-yl)-1H-indazol-5-yl)pyridin-2(1H)-one], the half-maximal inhibitory concentration (IC50) in assay [1] is under 10 nM; in assay [2], at most 500 nM.
As to `Cc1cc(-c2n[nH]c3ccc(-c4ccn([C@H](CO)c5cc(Cl)ccc5F)c(=O)c4)cc23)ccn1` [Example 28, (S)-1-(1-(5-chloro-2-fluorophenyl)-2-hydroxyethyl)-4-(3-(2-methylpyridin-4-yl)-1H-indazol-5-yl)pyridin-2(1H)-one], the IC50 is under 10 nM in assay [1] and at most 500 nM in assay [2].
On to `Cc1cc(-c2n[nH]c3ccc(-c4ccn(Cc5cccc(C(F)(F)F)c5)c(=O)c4)cc23)ccn1` [Example 70, 4-(3-(2-methylpyridin-4-yl)-1H-indazol-5-yl)-1-(3-(trifluoromethyl)benzyl)pyridin-2(1H)-one], for which the IC50 in assay [1] is under 10 nM; in assay [2], 500 to 1000 nM.
The corresponding values for `Cc1cc(-c2n[nH]c3ccc(-c4ccn(Cc5ccc(Br)c(F)c5)c(=O)c4)cc23)ccn1` [Example 69, 1-(4-bromo-3-fluorobenzyl)-4-(3-(2-methylpyridin-4-yl)-1H-indazol-5-yl)pyridin-2(1H)-one] are under 10 nM and 500 to 1000 nM.
In the case of `CC(C)Oc1ccc(-c2n[nH]c3ccc(-c4ccn(Cc5cc(F)cc(Br)c5)c(=O)c4)cc23)cn1` [Example 99, 1-(3-bromo-5-fluorobenzyl)-4-(3-(6-isopropoxypyridin-3-yl)-1H-indazol-5-yl)pyridin-2(1H)-one], the concentration for half-maximal inhibition (IC50) in assay [1] was under 10 nM; in assay [2], 1000 to 5000 nM.
With `O=c1cc(-c2ccc3[nH]ncc3c2)ccn1[C@H](CO)c1cccc(Cl)c1` [Example 22, (S)-1-(1-(3-chlorophenyl)-2-hydroxyethyl)-4-(1H-indazol-5-yl)pyridin-2(1H)-one], the half-maximal inhibitory concentration (IC50) in assay [1] is 10 to 50 nM; in assay [2], over 5000 nM.
Consider `O=c1cc(-c2ccc3[nH]nc(-c4ccc(F)cn4)c3c2)ccn1Cc1ccnc(C(F)(F)F)c1` [Example 123, 4-(3-(5-fluoropyridin-2-yl)-1H-indazol-5-yl)-1-((2-(trifluoromethyl)pyridin-4-yl)methyl)pyridin-2(1H)-one], for which the figures for the IC50 in assay [1] and in assay [2] were 10 to 50 nM and over 5000 nM, respectively.
For `Cc1cc(-c2n[nH]c3ccc(-c4ccn(Cc5cccc(C(F)(F)F)c5F)c(=O)c4)cc23)ccn1` [Example 80, 1-(2-fluoro-3-(trifluoromethyl)benzyl)-4-(3-(2-methylpyridin-4-yl)-1H-indazol-5-yl)pyridin-2(1H)-one] the same measures were under 10 nM and 1000 to 5000 nM.
For `CC(c1cc(F)cc(Br)c1)n1ccc(-c2ccc3[nH]nc(C4CCOCC4)c3c2)cc1=O` (stereo not drawn) [Example 146, 1-(1-(3-bromo-5-fluorophenyl)ethyl)-4-(3-(tetrahydro-2H-pyran-4-yl)-1H-indazol-5-yl)pyridin-2(1H)-one] the same measures were under 10 nM and 1000 to 5000 nM.
As to `Cn1cc(-c2n[nH]c3ccc(-c4ccn([C@H](CO)c5ccc(Cl)c(F)c5)c(=O)c4)cc23)cn1` [Example 38, (S)-1-(1-(4-chloro-3-fluorophenyl)-2-hydroxyethyl)-4-(3-(1-methyl-1H-pyrazol-4-yl)-1H-indazol-5-yl)pyridin-2(1H)-one], the IC50 in assay [1] is under 10 nM; in assay [2] it was 500 to 1000 nM.
For `Cn1cc(-c2n[nH]c3ccc(-c4ccn(Cc5cccc(Br)c5)c(=O)c4)cc23)cn1` [Example 90, 1-(3-bromobenzyl)-4-(3-(1-methyl-1H-pyrazol-4-yl)-1H-indazol-5-yl)pyridin-2(1H)-one] the same measures were under 10 nM and at most 500 nM.
The corresponding values for `Cc1cc(-c2n[nH]c3ccc(-c4ccn(Cc5cccc(F)c5)c(=O)c4)cc23)ccn1` [Example 68, 1-(3-fluorobenzyl)-4-(3-(2-methylpyridin-4-yl)-1H-indazol-5-yl)pyridin-2(1H)-one] are under 10 nM and 1000 to 5000 nM.
For `Cc1cc(-c2n[nH]c3ccc(-c4ccn(Cc5cccc(I)c5)c(=O)c4)cc23)ccn1` [Example 57, 1-(3-iodobenzyl)-4-(3-(2-methylpyridin-4-yl)-1H-indazol-5-yl)pyridin-2(1H)-one] the same measures were under 10 nM and at most 500 nM.
On to `Cc1cc(-c2n[nH]c3ccc(-c4ccn([C@H](CO)c5cc(F)cc(Br)c5)c(=O)c4)cc23)ccn1` [Example 26, (S)-1-(1-(3-bromo-5-fluorophenyl)-2-hydroxyethyl)-4-(3-(2-methylpyridin-4-yl)-1H-indazol-5-yl)pyridin-2(1H)-one], for which the half-inhibitory concentration (IC50) in assay [1] is under 10 nM; in assay [2], at most 500 nM.
`Cc1cc(-c2n[nH]c3cnc(-c4ccn(Cc5ccnc(C(F)(F)F)c5)c(=O)c4)cc23)ccn1` [Example 144, 4-(3-(2-methylpyridin-4-yl)-1H-pyrazolo[3,4-c]pyridin-5-yl)-1-((2-(trifluoromethyl)pyridin-4-yl)methyl)pyridin-2(1H)-one]: the IC50 was under 10 nM in assay [1] and 1000 to 5000 nM in assay [2].
On to `CC(c1ccc(F)c(Cl)c1)n1ccc(-c2ccc3[nH]nc(-c4cnn(C)c4)c3c2)cc1=O` (stereo not drawn) [Example 97, 1-(1-(3-chloro-4-fluorophenyl)ethyl)-4-(3-(1-methyl-1H-pyrazol-4-yl)-1H-indazol-5-yl)pyridin-2(1H)-one], for which the IC50 in assay [1] was 10 to 50 nM; in assay [2], 1000 to 5000 nM.
The corresponding values for `COCCn1cc(-c2n[nH]c3ccc(-c4ccn([C@H](CO)c5ccc(F)c(Cl)c5)c(=O)c4)cc23)cn1` [Example 52, (S)-1-(1-(3-chloro-4-fluorophenyl)-2-hydroxyethyl)-4-(3-(1-(2-methoxyethyl)-1H-pyrazol-4-yl)-1H-indazol-5-yl)pyridin-2(1H)-one] are under 10 nM and 1000 to 5000 nM.
For `Cc1cc(-c2n[nH]c3ccc(-c4ccn(Cc5cc(F)ccc5F)c(=O)c4)cc23)ccn1` [Example 72, 1-(2,5-difluorobenzyl)-4-(3-(2-methylpyridin-4-yl)-1H-indazol-5-yl)pyridin-2(1H)-one] the same measures were under 10 nM and 500 to 1000 nM.
`O=c1cc(-c2ccc3[nH]nc(C4CCOCC4)c3c2)ccn1[C@H](CO)c1cc(F)cc(Br)c1` [Example 145, (S)-1-(1-(3-bromo-5-fluorophenyl)-2-hydroxyethyl)-4-(3-(tetrahydro-2H-pyran-4-yl)-1H-indazol-5-yl)pyridin-2(1H)-one]: the values for the IC50 in assay [1] and in assay [2] were under 10 nM and 500 to 1000 nM, respectively.
`Cc1cc(-c2n[nH]c3ccc(-c4ccn(Cc5cc(F)c(F)c(F)c5)c(=O)c4)cc23)ccn1` [Example 76, 4-(3-(2-methylpyridin-4-yl)-1H-indazol-5-yl)-1-(3,4,5-trifluorobenzyl)pyridin-2(1H)-one]: the IC50 was under 10 nM in assay [1] and 500 to 1000 nM in assay [2].
Regarding `COc1ccc(-c2n[nH]c3cnc(-c4ccn([C@H](CO)c5cc(F)cc(Br)c5)c(=O)c4)cc23)cn1` [Example 124, (S)-1-(1-(3-bromo-5-fluorophenyl)-2-hydroxyethyl)-4-(3-(6-methoxypyridin-3-yl)-1H-pyrazolo[3,4-c]pyridin-5-yl)pyridin-2(1H)-one], the IC50 in assay [1] is under 10 nM; in assay [2], 500 to 1000 nM.
